Assay results from patent publication US20070031815A1, “Screening method for identifying hsp90 modulators” (University of Liverpool, priority 2003, published 2007).

system: yeast cells; assay: Entry of known Hsp90 inhibitors into yeast cells; format: cell-based; settings: not given
Excerpt: Yeast have many advantages in development of screening systems or biosensors-compared to mammalian cells they are robust; easy and cheap to grow; genetically stable; and represent a reduced health risk to workers (viral contamination of cell lines becomes an issue in low cost high throughput screening). […] However, yeast are not always permeable to compounds that would be able to enter mammalian cells. […] This problem has been overcome in the past by using yeast mutants that have enhanced sensitivity to toxic chemicals. These mutations are in genes described as Pleiotrophic Drug Resistance (PDR) or Multiple Drug Resistance (MDR) gene. One class of PDR genes are those affecting the ergosterol balance in the yeast membrane. Mammalian cells have cholesterol in the plasma membrane while yeast have ergosterol. Mutations in the gene ERG6 (ISE1) cause cells to become sensitive to a range of lipophilic drugs. Another class of mutations affect active drug uptake or efflux, for example mutations to the ATP dependent efflux pump PDR5 increase drug sensitivity. A combination of mutations from these different pathways further increases sensitivity. In addition to increasing permeability of the plasma membrane and reducing efflux better drug entry can also be brought about by changing the cell wall structure, this can also increase osmotic sensitivity, which facilitates release of proteins. Mutation of the GDP-mannose phosphorylase (SRB1) interferes with the glycosylation of cell wall proteins, this increases drug and osmotic sensitivity. Hsp90 itself is also involved in the maintenance of cell wall integrity via its functional interaction with Ste11. Ste11 is a MAPKKK that normally activates the MAPKK Pbs2 which in turn activates the Hog-1 transcriptional activator. Hog-1 activation modifies the cell wall in response to osmotic shock, disruption of Hog-1 causes drug and osmotic sensitivity. There are also dominant mutations which increase sensitivity to cytotoxic agents, such as ISE2 which increases sensitivity to a range of topoisomerase II inhibitors.

Row | SMILES | entry into yeast cells
1 | CO[C@H]1[C@@H](OC)C[C@H](C)[C@@H](OC)C2=CC(=O)C=C(NC(=O)/C(C)=C/C=C\[C@H](C)[C@@H](OC(N)=O)/C(C)=C/[C@@H]1C)C2=O [Macbecin, Macbecin I] | enter yeast cells easily

same assay, conditions: yeast permeability

Row | SMILES | entry into yeast cells
2 | CO[C@@H]1[C@@H](OC(N)=O)[C@@H](O)[C@H](Oc2ccc3c(O)c(NC(=O)c4ccc(O)c(CC=C(C)C)c4)c(=O)oc3c2C)OC1(C)C [Novobiocin] | enter yeast cells easily
3 | C[C@@H]1C[C@H]2O[C@@H]2/C=C\C=C\C(=O)Cc2c(Cl)c(O)cc(O)c2C(=O)O1 [Radicicol] | enter yeast cells easily
4 | CO[C@H]1[C@@H](OC)C[C@H](C)[C@@H](OC)C2=CC(=O)C=C(NC(=O)/C(C)=C/C=C\[C@H](OC)[C@@H](OC(N)=O)/C(C)=C/[C@@H]1C)C2=O [Herbimycin] | enter yeast cells easily
5 | C=CCNC1=C2C[C@@H](C)C[C@H](OC)[C@H](O)[C@@H](C)/C=C(\C)[C@H](OC(N)=O)[C@@H](OC)/C=C\C=C(/C)C(=O)NC(=CC1=O)C2=O [Compound 17-AAG, 17-allylamino demethoxy geldanamycin] | enter yeast cells easily
6 | COC1=C2C[C@@H](C)C[C@H](OC)[C@H](O)[C@@H](C)/C=C(\C)[C@H](OC(N)=O)[C@@H](OC)/C=C\C=C(/C)C(=O)NC(=CC1=O)C2=O [GA, Geldanamycin] | enter yeast cells easily
